# Experimental data reported in US12030881B2, “Ion channel modulators” (PRAXIS PRECISION MEDICINES, INC., priority 2019, dated 2024).
# Molecular target: T1, INaL v1.6 (Nav late current, recombinant sodium channels) (Homo sapiens, UniProt Q9UQD0)
# T1 construct: expressed in transfected cells; host or cells: HEK-293
# Assay: PatchXpress electrophysiology, ATX-II evoked Nav late current (INaL) in HEK-293 cells expressing recombinant sodium channels
# Format: cell-based
# Details: HEK293, compound at 1 μM, late current evoked by ATX-II 300 nM, steady state block
# Description: Functional characterization of exemplary compounds to modulate voltage gated sodium currents was accomplished using the PatchXpress™ high throughput electrophysiology platforms (Molecular Devices, Sunnyvale, CA). HEK-293 cells expressing recombinant sodium channels were grown in DMEM/high-glucose Dulbecco's modified, 10% FBS, 2 mM sodium pyruvate, and G418. Nav channel expressing cells were grown to 50%-80% confluency and harvested by trypsinization. Trypsinized cells were washed and resuspended in extracellular buffer at a concentration of 1×10^6 cells/ml. The onboard liquid handling facility of the PatchXpress was used for dispensing cells and application of test compounds. Nav late currents were evoked by the application of ATX-II, 300 nM. Currents were evoked by depolarizing pulses to 0 mV for 200 ms from a non-inactivating holding potential (e.g., −120 mV to −150 mV) at a frequency of 0.1 Hz. Late current amplitude and stability were determined by analyzing the mean current amplitude over the 175-195 msec region of the 200 msec test pulse. Following steady state block with exemplary compounds (e.g., as described herein) at 1 μM, a Na free solution containing an impermeant cation (e.g., Choline or NDMG) was added for determination of the 0 current level. Late current amplitudes for each test condition were determined from the mean of the 175-195 msec region of the 200 msec test pulse. Percent inhibition of steady state currents was calculated as (compound-baseline)/(control-baseline)*100, where control represents INaL recorded in the absence of compound.
# T1 sequence (Q9UQD0 whole entry): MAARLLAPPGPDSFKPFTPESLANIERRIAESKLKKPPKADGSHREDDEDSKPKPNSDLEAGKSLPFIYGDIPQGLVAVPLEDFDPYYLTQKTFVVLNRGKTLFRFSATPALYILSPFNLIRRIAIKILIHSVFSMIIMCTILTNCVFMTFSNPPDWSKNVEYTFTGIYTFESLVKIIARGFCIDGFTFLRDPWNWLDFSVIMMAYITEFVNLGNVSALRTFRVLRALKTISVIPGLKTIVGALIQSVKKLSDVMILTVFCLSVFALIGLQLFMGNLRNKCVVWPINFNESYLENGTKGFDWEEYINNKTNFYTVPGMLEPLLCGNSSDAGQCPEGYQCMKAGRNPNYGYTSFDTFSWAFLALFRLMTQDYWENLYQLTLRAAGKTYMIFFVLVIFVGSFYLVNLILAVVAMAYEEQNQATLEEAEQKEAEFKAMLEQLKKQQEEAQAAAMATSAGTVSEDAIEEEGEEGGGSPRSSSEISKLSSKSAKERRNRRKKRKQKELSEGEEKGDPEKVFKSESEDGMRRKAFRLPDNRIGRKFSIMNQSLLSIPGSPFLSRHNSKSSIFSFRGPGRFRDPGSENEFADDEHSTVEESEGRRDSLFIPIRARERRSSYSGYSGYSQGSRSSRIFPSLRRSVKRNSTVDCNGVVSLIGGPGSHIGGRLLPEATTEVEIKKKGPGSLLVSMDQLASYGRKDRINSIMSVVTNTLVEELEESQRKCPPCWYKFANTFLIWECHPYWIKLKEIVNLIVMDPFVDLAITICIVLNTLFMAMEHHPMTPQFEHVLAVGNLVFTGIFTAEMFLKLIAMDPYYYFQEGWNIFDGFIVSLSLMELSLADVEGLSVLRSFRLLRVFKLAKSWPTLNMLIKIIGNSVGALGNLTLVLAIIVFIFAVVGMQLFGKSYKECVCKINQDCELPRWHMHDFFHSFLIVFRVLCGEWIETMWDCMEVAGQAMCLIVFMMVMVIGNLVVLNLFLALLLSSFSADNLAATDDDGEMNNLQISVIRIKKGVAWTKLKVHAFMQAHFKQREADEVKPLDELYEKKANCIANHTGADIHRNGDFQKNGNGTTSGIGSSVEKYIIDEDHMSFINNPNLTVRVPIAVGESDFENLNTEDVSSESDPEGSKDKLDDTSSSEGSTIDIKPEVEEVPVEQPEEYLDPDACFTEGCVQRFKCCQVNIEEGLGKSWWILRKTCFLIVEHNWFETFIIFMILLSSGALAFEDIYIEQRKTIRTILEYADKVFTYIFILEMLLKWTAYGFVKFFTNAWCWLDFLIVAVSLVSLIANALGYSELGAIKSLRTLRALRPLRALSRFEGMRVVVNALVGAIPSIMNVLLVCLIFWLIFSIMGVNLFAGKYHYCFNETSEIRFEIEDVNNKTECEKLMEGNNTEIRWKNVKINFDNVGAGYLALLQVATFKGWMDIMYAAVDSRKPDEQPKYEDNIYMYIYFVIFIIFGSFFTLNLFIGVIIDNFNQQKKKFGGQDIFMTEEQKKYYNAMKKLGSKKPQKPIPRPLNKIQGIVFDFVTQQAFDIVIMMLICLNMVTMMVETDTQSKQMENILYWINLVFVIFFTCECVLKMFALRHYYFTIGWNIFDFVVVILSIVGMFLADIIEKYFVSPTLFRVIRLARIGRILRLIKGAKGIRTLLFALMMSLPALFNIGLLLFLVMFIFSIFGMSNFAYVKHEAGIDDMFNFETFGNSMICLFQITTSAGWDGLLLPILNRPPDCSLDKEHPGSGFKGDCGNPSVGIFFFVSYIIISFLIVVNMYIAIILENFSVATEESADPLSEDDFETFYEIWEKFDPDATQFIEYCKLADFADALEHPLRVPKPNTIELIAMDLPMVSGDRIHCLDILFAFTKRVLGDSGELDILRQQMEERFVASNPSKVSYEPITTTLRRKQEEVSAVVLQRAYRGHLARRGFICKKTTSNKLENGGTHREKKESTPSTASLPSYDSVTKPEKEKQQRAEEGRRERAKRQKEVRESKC
row,SMILES,inhibition at 1 µM
1,"C[C@H](Oc1ncc(-c2ccc3nnc(C(F)F)n3c2)cc1F)C(F)(F)F [Example 4, 3-(difluoromethyl)-6-[5-fluoro-6-[(1S)-2,2,2-trifluoro-1-methyl-ethoxy]-3-pyridyl]-[1,2,4]triazolo[4,3-a]pyridine]",> 75%
2,"Fc1cc(-c2ccc3nnc(C(F)(F)F)n3c2)cnc1OC1(C(F)(F)F)CCC1 [Example 7, 6-[5-fluoro-6-[1-(trifluoromethyl)cyclobutoxy]-3-pyridyl]-3-(trifluoromethyl)-[1,2,4]triazolo[4,3-a]pyridine]",> 75%
3,"C[C@@H](Oc1ncc(-c2ccc3nnc(C(F)(F)F)n3c2)cc1F)C(F)(F)F [Example 2, 6-[5-fluoro-6-[(1R)-2,2,2-trifluoro-1-methyl-ethoxy]-3-pyridyl]-3-(trifluoromethyl)-[1,2,4]triazolo[4,3-a]pyridine]",> 75%
4,"C[C@H](Oc1ncc(-c2ccc3nnc(C(F)(F)F)n3c2)cc1F)C(F)(F)F [Example 1, 6-[5-fluoro-6-[(1S)-2,2,2-trifluoro-1-methyl-ethoxy]-3-pyridyl]-3-(trifluoromethyl)-[1,2,4]triazolo[4,3-a]pyridine]",> 75%
5,"C[C@@H](Oc1ncc(-c2ccc3nnc(C(F)F)n3c2)cc1F)C(F)(F)F [Example 3, 3-(difluoromethyl)-6-[5-fluoro-6-[(1R)-2,2,2-trifluoro-1-methyl-ethoxy]-3-pyridyl]-[1,2,4]triazolo[4,3-a]pyridine]",> 75%

# Next, values leading:
row,inhibition at 1 µM,SMILES
1,50 to 75%,"Fc1cc(-c2ccc3nnc(C(F)F)n3c2)cnc1OCC(F)(F)F [Example 9, 3-(difluoromethyl)-6-[5-fluoro-6-(2,2,2-trifluoroethoxy)-3-pyridyl]-[1,2,4]triazolo[4,3-a]pyridine]"
2,> 75%,"Fc1cc(-c2ccc3nnc(C(F)(F)F)n3c2)cnc1OCC(F)(F)F [Example 10, 6-[5-fluoro-6-(2,2,2-trifluoroethoxy)-3-pyridyl]-3-(trifluoromethyl)-[1,2,4]triazolo[4,3-a]pyridine]"
3,50 to 75%,"Fc1cc(-c2ccc3nnc(C(F)(F)F)n3c2)cnc1OC1(C(F)(F)F)COC1 [Example 8, 6-[5-fluoro-6-[3-(trifluoromethyl)oxetan-3-yl]oxy-3-pyridyl]-3-(trifluoromethyl)-[1,2,4]triazolo[4,3-a]pyridine]"
4,> 75%,"CC(C)(Oc1ncc(-c2ccc3nnc(C(F)F)n3c2)cc1F)C(F)(F)F [Example 5, 3-(difluoromethyl)-6-[5-fluoro-6-(2,2,2-trifluoro-1,1-dimethyl-ethoxy)-3-pyridyl]-[1,2,4]triazolo[4,3-a]pyridine]"
5,> 75%,"CC(C)(Oc1ncc(-c2ccc3nnc(C(F)(F)F)n3c2)cc1F)C(F)(F)F [Example 6, 6-[5-fluoro-6-(2,2,2-trifluoro-1,1-dimethyl-ethoxy)-3-pyridyl]-3-(trifluoromethyl)-[1,2,4]triazolo[4,3-a]pyridine]"
